According to ChEMBL document CHEMBL5291721, “A preclinical secondary pharmacology resource illuminates target-adverse drug reaction associations of marketed drugs” (Nat Commun, 2023):

Key:
Adenosine receptor A1 = target: T1, Adenosine receptor A1 (Homo sapiens, UniProt P30542)
T1 sequence (P30542 whole entry): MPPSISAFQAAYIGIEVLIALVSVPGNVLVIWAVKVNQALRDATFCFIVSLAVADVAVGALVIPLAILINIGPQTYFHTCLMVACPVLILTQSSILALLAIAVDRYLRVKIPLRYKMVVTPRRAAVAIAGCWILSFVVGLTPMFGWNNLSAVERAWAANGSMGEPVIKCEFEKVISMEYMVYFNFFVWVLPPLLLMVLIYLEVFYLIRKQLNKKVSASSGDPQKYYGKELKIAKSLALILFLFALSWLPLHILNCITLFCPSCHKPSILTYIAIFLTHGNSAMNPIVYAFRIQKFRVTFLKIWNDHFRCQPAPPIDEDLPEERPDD

B2 bradykinin receptor = target: T2, B2 bradykinin receptor (Homo sapiens, UniProt P30411)
T2 sequence (P30411 whole entry): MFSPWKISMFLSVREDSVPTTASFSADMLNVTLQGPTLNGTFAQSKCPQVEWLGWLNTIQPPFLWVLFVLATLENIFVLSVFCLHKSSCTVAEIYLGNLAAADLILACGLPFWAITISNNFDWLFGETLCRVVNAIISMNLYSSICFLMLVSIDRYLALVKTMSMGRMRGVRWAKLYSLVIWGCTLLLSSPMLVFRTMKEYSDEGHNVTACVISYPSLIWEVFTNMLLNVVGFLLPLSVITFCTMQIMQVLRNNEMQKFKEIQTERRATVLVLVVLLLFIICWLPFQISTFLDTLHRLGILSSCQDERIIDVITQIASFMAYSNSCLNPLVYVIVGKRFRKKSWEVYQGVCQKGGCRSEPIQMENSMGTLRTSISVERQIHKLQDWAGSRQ

Adenosine receptor A3 = target: T3, Adenosine receptor A3 (Homo sapiens, UniProt P0DMS8)
T3 sequence (P0DMS8 whole entry): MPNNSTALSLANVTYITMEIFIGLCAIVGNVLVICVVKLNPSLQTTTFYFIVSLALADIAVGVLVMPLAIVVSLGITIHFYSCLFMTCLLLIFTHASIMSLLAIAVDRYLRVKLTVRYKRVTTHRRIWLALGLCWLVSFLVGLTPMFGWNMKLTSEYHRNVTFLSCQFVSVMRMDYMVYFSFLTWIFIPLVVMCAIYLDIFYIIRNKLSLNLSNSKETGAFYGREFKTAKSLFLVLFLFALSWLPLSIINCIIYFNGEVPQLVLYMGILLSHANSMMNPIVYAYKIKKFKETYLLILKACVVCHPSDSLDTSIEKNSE

[1] = target: T4, Alpha-2A adrenergic receptor (Homo sapiens, UniProt P08913); type: functional, cell-based
T4 sequence (P08913 whole entry): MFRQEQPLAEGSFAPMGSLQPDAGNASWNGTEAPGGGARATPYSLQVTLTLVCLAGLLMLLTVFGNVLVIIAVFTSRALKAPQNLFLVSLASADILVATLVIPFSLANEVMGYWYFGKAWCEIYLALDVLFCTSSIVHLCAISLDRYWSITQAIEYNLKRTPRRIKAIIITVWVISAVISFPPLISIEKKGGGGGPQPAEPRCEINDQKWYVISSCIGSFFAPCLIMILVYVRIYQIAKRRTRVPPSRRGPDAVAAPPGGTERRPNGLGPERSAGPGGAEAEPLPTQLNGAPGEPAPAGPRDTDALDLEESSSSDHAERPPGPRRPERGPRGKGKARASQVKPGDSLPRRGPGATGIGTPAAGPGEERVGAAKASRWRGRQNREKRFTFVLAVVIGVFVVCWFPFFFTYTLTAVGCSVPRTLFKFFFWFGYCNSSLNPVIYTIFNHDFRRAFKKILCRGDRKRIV

[2] = target: T5, 5-hydroxytryptamine receptor 1A (Homo sapiens, UniProt P08908); type: functional, cell-based
T5 sequence (P08908 whole entry): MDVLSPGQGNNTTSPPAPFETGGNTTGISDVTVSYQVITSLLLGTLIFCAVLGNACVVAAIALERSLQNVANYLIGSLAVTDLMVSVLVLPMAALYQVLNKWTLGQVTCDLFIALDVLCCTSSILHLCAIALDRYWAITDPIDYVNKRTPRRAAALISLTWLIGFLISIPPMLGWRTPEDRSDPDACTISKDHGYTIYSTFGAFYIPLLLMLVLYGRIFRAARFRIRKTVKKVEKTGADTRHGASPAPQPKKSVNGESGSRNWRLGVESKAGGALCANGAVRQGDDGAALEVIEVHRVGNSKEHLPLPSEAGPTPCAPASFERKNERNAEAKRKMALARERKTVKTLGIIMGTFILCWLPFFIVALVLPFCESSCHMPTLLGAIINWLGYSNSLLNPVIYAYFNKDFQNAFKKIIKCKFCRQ

Histamine H2 receptor = Histamine H2 receptor (Homo sapiens, UniProt P25021); type: functional, cell-based
[3] = target: T6, Prostaglandin G/H synthase 1 (Rattus norvegicus, UniProt Q63921); type: functional
T6 sequence (Q63921 whole entry): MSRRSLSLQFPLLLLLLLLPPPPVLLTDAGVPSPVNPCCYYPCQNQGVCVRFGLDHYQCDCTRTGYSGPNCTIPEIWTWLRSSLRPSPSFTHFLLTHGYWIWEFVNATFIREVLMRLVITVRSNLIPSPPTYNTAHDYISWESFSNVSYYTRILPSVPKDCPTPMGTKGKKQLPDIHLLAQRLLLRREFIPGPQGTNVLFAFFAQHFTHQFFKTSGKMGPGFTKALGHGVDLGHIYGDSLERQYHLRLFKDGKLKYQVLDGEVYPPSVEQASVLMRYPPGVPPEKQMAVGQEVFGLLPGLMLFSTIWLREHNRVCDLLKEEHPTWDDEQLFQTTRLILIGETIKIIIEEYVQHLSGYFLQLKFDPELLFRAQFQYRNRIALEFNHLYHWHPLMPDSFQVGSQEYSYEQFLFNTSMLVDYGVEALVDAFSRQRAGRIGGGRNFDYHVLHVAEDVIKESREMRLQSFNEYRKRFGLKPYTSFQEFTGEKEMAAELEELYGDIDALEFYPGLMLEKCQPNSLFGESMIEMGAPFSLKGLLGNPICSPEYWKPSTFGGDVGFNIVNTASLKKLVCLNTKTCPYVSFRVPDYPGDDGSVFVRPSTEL

[4] = target: cGMP-inhibited 3',5'-cyclic phosphodiesterase 3A (Homo sapiens, UniProt Q14432); type: functional
[5] = target: Growth hormone secretagogue receptor type 1 (Homo sapiens, UniProt Q92847)
Cannabinoid receptor 1 = Cannabinoid receptor 1 (Homo sapiens, UniProt P21554)
Further: assay procedure not described here.

Sequence of Histamine H2 receptor (P25021 whole entry): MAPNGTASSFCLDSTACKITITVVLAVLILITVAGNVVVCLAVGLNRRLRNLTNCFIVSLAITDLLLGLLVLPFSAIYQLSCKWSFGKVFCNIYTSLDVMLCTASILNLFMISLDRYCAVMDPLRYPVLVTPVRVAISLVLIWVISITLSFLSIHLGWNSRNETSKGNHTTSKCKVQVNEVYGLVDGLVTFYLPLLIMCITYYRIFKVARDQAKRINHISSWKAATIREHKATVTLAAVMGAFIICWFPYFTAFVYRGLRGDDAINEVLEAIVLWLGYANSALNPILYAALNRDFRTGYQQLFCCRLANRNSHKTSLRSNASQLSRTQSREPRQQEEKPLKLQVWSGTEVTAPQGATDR
Sequence of cGMP-inhibited 3',5'-cyclic phosphodiesterase 3A (Q14432 whole entry): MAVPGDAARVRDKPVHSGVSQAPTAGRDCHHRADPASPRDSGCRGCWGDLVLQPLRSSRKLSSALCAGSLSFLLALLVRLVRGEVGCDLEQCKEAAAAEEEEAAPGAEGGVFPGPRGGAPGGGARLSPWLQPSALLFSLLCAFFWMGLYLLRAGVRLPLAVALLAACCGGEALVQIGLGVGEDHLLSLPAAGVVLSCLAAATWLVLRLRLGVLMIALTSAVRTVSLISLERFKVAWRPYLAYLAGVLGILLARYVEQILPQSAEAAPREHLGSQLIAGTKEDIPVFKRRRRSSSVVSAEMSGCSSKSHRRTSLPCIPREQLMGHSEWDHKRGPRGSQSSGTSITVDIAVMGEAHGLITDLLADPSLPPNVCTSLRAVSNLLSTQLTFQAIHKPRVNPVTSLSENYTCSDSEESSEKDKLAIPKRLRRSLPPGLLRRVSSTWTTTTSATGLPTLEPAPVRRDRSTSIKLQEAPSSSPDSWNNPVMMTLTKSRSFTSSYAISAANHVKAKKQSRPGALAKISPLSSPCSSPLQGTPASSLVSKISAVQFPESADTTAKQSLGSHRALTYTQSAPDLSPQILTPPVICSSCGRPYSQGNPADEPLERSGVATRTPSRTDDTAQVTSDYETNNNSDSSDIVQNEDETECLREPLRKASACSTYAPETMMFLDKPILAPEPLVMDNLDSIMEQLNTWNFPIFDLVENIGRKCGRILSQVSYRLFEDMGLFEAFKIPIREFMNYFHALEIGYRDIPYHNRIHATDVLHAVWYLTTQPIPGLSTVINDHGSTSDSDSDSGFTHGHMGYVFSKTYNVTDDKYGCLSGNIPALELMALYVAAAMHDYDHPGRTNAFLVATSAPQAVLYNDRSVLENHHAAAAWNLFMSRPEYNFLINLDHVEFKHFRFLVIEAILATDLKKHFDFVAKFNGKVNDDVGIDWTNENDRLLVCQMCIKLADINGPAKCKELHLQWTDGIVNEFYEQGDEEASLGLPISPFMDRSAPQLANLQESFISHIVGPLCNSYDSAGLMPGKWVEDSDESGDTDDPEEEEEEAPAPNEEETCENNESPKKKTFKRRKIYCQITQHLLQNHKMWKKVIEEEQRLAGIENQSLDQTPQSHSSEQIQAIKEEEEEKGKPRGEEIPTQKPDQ
Sequence of Growth hormone secretagogue receptor type 1 (Q92847 whole entry): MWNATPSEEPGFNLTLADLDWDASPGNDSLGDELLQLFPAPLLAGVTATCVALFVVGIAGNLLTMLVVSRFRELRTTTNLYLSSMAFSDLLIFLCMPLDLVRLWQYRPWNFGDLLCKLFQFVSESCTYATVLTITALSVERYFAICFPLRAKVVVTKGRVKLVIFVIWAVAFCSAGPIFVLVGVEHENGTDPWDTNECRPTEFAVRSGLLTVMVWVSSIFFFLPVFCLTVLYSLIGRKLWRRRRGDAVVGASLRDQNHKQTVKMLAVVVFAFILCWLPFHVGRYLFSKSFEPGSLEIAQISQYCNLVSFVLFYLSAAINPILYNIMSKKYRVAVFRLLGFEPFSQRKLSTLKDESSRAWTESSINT
Sequence of Cannabinoid receptor 1 (P21554 whole entry): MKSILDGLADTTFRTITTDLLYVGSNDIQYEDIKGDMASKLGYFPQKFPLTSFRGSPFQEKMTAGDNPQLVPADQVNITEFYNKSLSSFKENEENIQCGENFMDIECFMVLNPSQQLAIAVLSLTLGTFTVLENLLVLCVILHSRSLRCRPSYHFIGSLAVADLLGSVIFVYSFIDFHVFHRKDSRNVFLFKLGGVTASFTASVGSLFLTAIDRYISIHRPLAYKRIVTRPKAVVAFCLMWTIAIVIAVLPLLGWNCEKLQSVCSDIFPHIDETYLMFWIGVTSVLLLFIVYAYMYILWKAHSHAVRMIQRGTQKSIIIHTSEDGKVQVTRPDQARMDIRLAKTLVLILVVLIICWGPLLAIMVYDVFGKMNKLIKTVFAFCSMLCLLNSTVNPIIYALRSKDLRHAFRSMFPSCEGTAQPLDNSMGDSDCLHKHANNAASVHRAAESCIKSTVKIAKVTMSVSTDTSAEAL

Compound	AC50 (Adenosine receptor A1)	AC50 (B2 bradykinin receptor)	AC50 (Adenosine receptor A3)	AC50 [1]	AC50 [2]	AC50 (Histamine H2 receptor)	AC50 [3]	AC50 [4]	AC50 [5]	AC50 (Cannabinoid receptor 1)
O=C(C[S+]([O-])C(c1ccccc1)c1ccccc1)NO (stereo not given)	> 30 µM	> 30 µM	> 30 µM	> 30 µM	> 30 µM	> 30 µM	> 30 µM	> 10 µM	> 30 µM	
COc1ccc2c(c1)c(CC(=O)OCC(=O)O)c(C)n2C(=O)c1ccc(Cl)cc1 [ACEMETACIN]	> 30 µM	> 30 µM	> 30 µM	> 30 µM	> 30 µM	> 30 µM	30 µM	> 30 µM	> 30 µM	
CN1C(=O)COc2c(C(=O)NC3CN4CCC3CC4)cc(Cl)cc21 (stereo not given) [AZASETRON]	> 30 µM	> 30 µM	> 30 µM	> 30 µM	> 30 µM	> 30 µM	> 30 µM	> 10 µM	> 30 µM	
Cc1cc2c(OCC(CNC(C)(C)C)OC(=O)c3ccccc3)cccc2[nH]1 (stereo not given) [BOPINDOLOL]	> 30 µM	> 30 µM	> 30 µM	> 30 µM	> 30 µM	> 30 µM	3.5 µM	> 30 µM	16 µM	
CCCCN1CCCCC1C(=O)Nc1c(C)cccc1C (stereo not given) [BUPIVACAINE]	> 30 µM	> 30 µM	> 30 µM	> 30 µM	> 30 µM	> 30 µM	> 30 µM	> 30 µM	> 30 µM	
CCOC(=O)[C@H](CCc1ccccc1)N[C@H]1CCCN2CCC[C@@H](C(=O)O)N2C1=O [CILAZAPRIL]	> 30 µM	> 30 µM	> 30 µM	> 30 µM	> 30 µM	> 30 µM	> 30 µM	> 30 µM	> 30 µM	
CCOc1cc(N)c([N+](=O)[O-])cc1C(=O)NC1CCN(CC2CC=CCC2)CC1 (stereo not given) [CINITAPRIDE]	> 30 µM	> 30 µM	> 30 µM	> 30 µM	> 30 µM	> 30 µM	> 30 µM	> 30 µM	> 30 µM	
CC(C)(Oc1ccc(C2CC2(Cl)Cl)cc1)C(=O)O (stereo not given) [CIPROFIBRATE]	> 30 µM	> 30 µM	> 30 µM	> 30 µM	> 30 µM	> 30 µM	> 30 µM	> 30 µM	> 30 µM	
COC(=O)[C@H]1[C@@H](OC(=O)c2ccccc2)C[C@@H]2CC[C@H]1N2C [COCAINE]	> 30 µM	> 30 µM	> 30 µM	> 30 µM	> 30 µM	> 30 µM	> 30 µM	> 30 µM	> 30 µM	
Cc1c(O)c(=O)ccn1C [DEFERIPRONE]	> 30 µM	> 30 µM	> 30 µM	> 30 µM	> 30 µM	> 30 µM	> 3 µM	> 30 µM	> 30 µM	
CCCCCCCCCCCC[N+](C)(C)CCOc1ccccc1 [DOMIPHEN]	> 30 µM	> 30 µM	10 µM		22 µM	> 30 µM	> 30 µM	> 30 µM	5.7 µM	
COc1ccc(C(=O)NCc2ccc(OCCN(C)C)cc2)cc1OC [ITOPRIDE]	> 30 µM	> 30 µM	> 30 µM	> 30 µM	> 30 µM	> 30 µM	> 10 µM	> 30 µM	> 30 µM	
O=C(OCCN1CCOCC1)c1cccnc1Nc1cccc(C(F)(F)F)c1 [MORNIFLUMATE]	> 30 µM	> 30 µM	> 30 µM	> 30 µM	> 30 µM	> 30 µM	> 30 µM	> 30 µM	> 30 µM	
CCCCCCCCOc1ccccc1C(=O)Nc1ccc(C(=O)OCC[N+](C)(CC)CC)cc1 [OTILONIUM BROMIDE]	> 30 µM	> 30 µM	5.3 µM		11 µM	> 30 µM	14 µM	20 µM	7.6 µM	
Cc1nc2ccc(CN(C)c3ccc(C(=O)N[C@@H](CCC(=O)O)C(=O)O)s3)cc2c(=O)[nH]1 [RALTITREXED]	> 30 µM	> 30 µM	> 30 µM	> 30 µM	> 30 µM	> 30 µM	> 30 µM	> 30 µM	> 30 µM	> 30 µM
O=C1NCCN1CCN1CCC(c2cn(-c3ccc(F)cc3)c3ccc(Cl)cc23)CC1 [SERTINDOLE]	> 30 µM	> 30 µM	16 µM			> 30 µM	> 30 µM	> 30 µM	28 µM	
CC[C@]1(O)C[C@@H]2CN(CCc3c([nH]c4ccccc34)[C@@](C(=O)OC)(c3cc4c(cc3OC)N(C)[C@H]3[C@@](O)(C(N)=O)[C@H](O)[C@]5(CC)C=CCN6CC[C@]43[C@@H]65)C2)C1 [VINDESINE]	> 30 µM	> 30 µM	> 30 µM	> 30 µM	> 30 µM	> 30 µM	25 µM	> 30 µM	6.5 µM	> 30 µM
TOCOFERSOLAN	> 30 µM	> 30 µM	> 30 µM	> 30 µM	> 30 µM	> 30 µM	4 µM	> 10 µM	> 30 µM	
